Data reported in patent US20040024024A1, “Aromatic sulfone hydroxamates and their use as protease inhibitors” (priority 2001, published 2004).
pIC50, pKi: −log10 of the molar value. Counter-ions that a name gives are not always drawn.

How the values were obtained:
Human recombinant MMP-13 = target: T1, Human recombinant MMP-13 (Homo sapiens, UniProt P45452); assay: In vitro MMP inhibition, IC50 determination (fluorogenic substrate I); type: biochemical
T1 construct: made in house; host or cells: baculovirus / insect cells
How it was run: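 Fluorescence at 415 nm (excitation 328 nm) reports Gly-Leu cleavage of 4 μM quenched methoxycoumarin peptide substrate I. Human recombinant MMP-13, activated by trypsin or APMA, was incubated at room temperature with varied inhibitor concentrations in pH 7.5 Tris/NaCl/CaCl2 buffer; IC50 derived from reduced fluorescence.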

Human recombinant MMP-1 = target: T2, Human recombinant MMP-1 (Homo sapiens, UniProt P03956); assay: In vitro MMP inhibition, Ki determination (fluorogenic substrate II); type: biochemical
T2 construct: made in house; host or cells: MMP-1-transfected HT-1080 cells (spent media)
T2 sequence (P03956 100-469): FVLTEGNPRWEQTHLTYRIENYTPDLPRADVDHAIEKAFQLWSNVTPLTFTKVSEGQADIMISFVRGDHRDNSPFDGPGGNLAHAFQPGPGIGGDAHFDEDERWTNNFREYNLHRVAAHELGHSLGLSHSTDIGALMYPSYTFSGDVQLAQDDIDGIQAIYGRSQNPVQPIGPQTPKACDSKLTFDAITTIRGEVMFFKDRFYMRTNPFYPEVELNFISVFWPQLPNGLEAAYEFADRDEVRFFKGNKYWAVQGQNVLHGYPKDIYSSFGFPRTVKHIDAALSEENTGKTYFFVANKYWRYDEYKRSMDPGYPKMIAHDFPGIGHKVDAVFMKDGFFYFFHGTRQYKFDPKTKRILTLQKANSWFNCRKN
Protocol: Several hydroxamates and salts thereof were analyzed in in vitro assays to determine their ability to inhibit the MMP cleavage of peptide substrates. Inhibition (Ki) and IC50 constants were calculated from the assayed hydroxamate-MMP interactions.
Human recombinant MMP-1, MMP-2, MMP-9, MMP-13, and MMP-14 were used in this assay. All enzymes were prepared in Assignee's laboratories following usual laboratory procedures. Protocols for the preparation and use of these enzymes are available in the scientific literature. See, e.g., Enzyme Nomenclature (Academic Press, San Diego, Calif., 1992) (and the citations therein). See also, Frije et al., J. Biol. Chem., 26(24), 16766-73 (1994).
The MMP-1 proenzyme was purified from the spent media of MMP-1-transfected HT-1080 cells provided by Dr. Harold Welgus of Washington University (St. Louis, Mo.). The protein was purified on a zinc chelating column.
All MMPs were activated using 4-aminophenylmercuric acetate (“APMA”, Sigma Chemical, St. Louis, Mo.) or trypsin. MMP-9 also was activated using human recombinant MMP-3 (purified in Assignee's laboratory following standard cloning and purification techniques).
Two fluorogenic, methoxycoumarin-containing polypeptide substrates were used in the MMP inhibition assays:
MCA-ArgProLeuGlyLeuDpaAlaArgGluArgNH2 (II)
Here, “Dpa” is 3-(2,4-dinitrophenyl)-L-2,3-diaminopropionyl group, and “MCA” is 7-methoxycoumarin-4-yl acetyl. Substrate (I) was purchased from Baychem (Redwood City, Calif.), and substrate II was prepared Assignee's laboratory. Substrate I was used in the IC50 determination assays, while substrate II was used in the Ki determination assays. In the absence of MMP inhibitory activity, either substrate is cleaved at the Gly-Leu peptide bond. This cleavage separates the highly fluorogenic peptide from the 2,4-dinitrophenyl quencher, thus resulting in increase of fluorescent intensity.
The stock solutions of the assayed hydroxamates (or salts thereof) were prepared in 1% dimethyl sulfoxide (DMSO). These stock solutions were diluted in Buffer A (100 mM Tris-HCl, 100 mM NaCl, 10 mM CaCl2, 0.05% polyoxyethylene 23 lauryl ether, pH 7.5) to obtain solutions with different hydroxamate concentrations, i.e., assay solutions with different concentrations of the assayed MMP inhibitory compound. The experiment controls contained the same amount of Buffer A/DMSO as the assayed sample, but contained no hydroxamate (or salt thereof).
The assays from which the Ki determinations were made were performed as follows. The assayed hydroxamate samples were incubated in separate wells of untreated white polystyrene plates (Nunc Nalgene International, Rochester, N.Y.), and analyzed on a Tecan SpectraFlour Plus plate reader. The excitation wavelength was 330 nm, and the emission wavelength—420 nm. All samples (assayed hydroxamates and controls) were incubated in separate plate wells at room temperature for 1 hr in the presence of 4 μM of MMP substrate (II). In the absence of MMP inhibitory activity, substrate II was cleaved at the Gly-Leu bond resulting in an increase of relative fluorescence. Inhibition was observed as a reduced rate of this increase in relative fluorescence. The various hydroxamates were analyzed using a single low enzyme concentration with a single substrate concentration fixed at or below the Km. This protocol is a modification of method by Knight et al., FEBS Lett., 296(3), 263-266 (1992). Apparent inhibitory constants were determined by non-linear regression of reaction velocity as a function of inhibitor and enzyme concentration using Morrison's equation, as described by Kuzmic, Anal. Biochem. 286, 45-50 (2000). Modifications were made in the non-linear regression method to allow a common control reaction rate and effective enzyme concentration to be shared between all dose-response relationships on a given assay plate. […]

[1] = substrate (I) 4 μM, room temperature, values not in parenthesis
[2] = substrate (II) 4 μM, 1 hr room temperature, apparent Ki, values in parenthesis

Row | SMILES | pIC50 (Human recombinant MMP-13; value outside parentheses) | pKi (Human recombinant MMP-1; value in parentheses) | pIC50 (Human recombinant MMP-13; value outside parenthesis) | pKi (Human recombinant MMP-1; value in parenthesis) | further results
1 | NC(=O)c1cccc(OCCOc2ccc(S(=O)(=O)C3(C(=O)NO)CCOCC3)cc2)c1 [Example 54] | – | – | – | – | pIC50 (Human recombinant MMP-13; [1]): 7.98; pKi (Human recombinant MMP-1; [2]): < 5.00
2 | O=C(NO)C1(S(=O)(=O)c2ccc(OCCCc3cccc(-c4ccc5c(c4)OCO5)c3)cc2)CCOCC1 [Example 628] | 8.48 | < 5.00 | – | – | –
3 | O=C(NO)C1(S(=O)(=O)c2ccc(OCCCc3cccc(-c4cccnc4)c3)cc2)CCOCC1 [Example 150] | – | – | 9.22 | < 5.00 | –
4 | O=C(NO)C1(S(=O)(=O)c2ccc(OCCCc3nc(-c4ccccc4)no3)cc2)CCOCC1 [Example 584] | 8.44 | 5.56 | – | – | –
5 | O=C(NO)C1(S(=O)(=O)c2ccc(OCCCc3cccc(-c4ccc5ccccc5c4)c3)cc2)CCOCC1 [Example 629] | 7.10 | < 5.00 | – | – | –
6 | O=C(NO)C1(S(=O)(=O)c2ccc(OCCCc3cccc(-c4coc5ccccc45)c3)cc2)CCOCC1 [Example 634] | 7.79 | < 5.00 | – | – | –
7 | Cc1ccc(-c2cccc(CCOc3ccc(S(=O)(=O)C4(C(=O)NO)CCOCC4)cc3)c2)cc1 [Example 127] | – | – | 8.26 | < 5.00 | –
8 | COCCN1CCC(C(=O)NO)(S(=O)(=O)c2ccc(OCCCc3cc(-c4ccc(F)cc4F)cs3)cc2)CC1 [Example 47, 4-[(4-{3-[4-(2,4-difluorophenyl)thien-2-l]propoxy}phenyl)sulfonyl]-N-hydroxy-1-(2-methoxyethyl)piperidine-4-carboxamide Hydrochloride] | – | – | – | – | pIC50 (Human recombinant MMP-13; [1]): 9.70; pKi (Human recombinant MMP-1; [2]): < 5.00
9 | O=C(NO)C1(S(=O)(=O)c2ccc(OCCc3cccc(-c4ccc(F)cc4)c3)cc2)CCOCC1 [Example 123] | – | – | 8.85 | < 5.00 | –
10 | CCN1CCC(C(=O)NO)(S(=O)(=O)c2ccc(OCCCc3cccc(-c4ccccc4)c3)cc2)CC1 [Example 46] | – | – | – | – | pIC50 (Human recombinant MMP-13; [1]): 8.51; pKi (Human recombinant MMP-1; [2]): < 5.00
11 | O=C(NO)C1(S(=O)(=O)c2ccc(OCCCc3nc(-c4ccc(OC(F)(F)F)cc4)no3)cc2)CCOCC1 [Example 31, tetrahydro-N-hydroxy-4-[[4-[3-[3[4-(trifluoromethoxy)phenyl]-1,2,4-oxadiazol-5-yl]propoxy]phenyl]sulfonyl]-2H-pyran-4-carboxamide] | – | – | – | – | pIC50 (Human recombinant MMP-13; [1]): 8.68; pKi (Human recombinant MMP-1; [2]): < 5.00
12 | O=C(NCCOc1ccc(S(=O)(=O)C2(C(=O)NO)CCOCC2)cc1)c1cc2ccccc2[nH]1 [Example 599] | 10.00 | < 5.00 | – | – | –
13 | O=C(NO)C1(S(=O)(=O)c2ccc(OCCc3cccc(-c4ccccc4F)c3)cc2)CCOCC1 [Example 115] | – | – | 9.05 | < 5.00 | –
14 | O=C(NO)C1(S(=O)(=O)c2ccc(OCCCc3cccc(-c4csc5ccccc45)c3)cc2)CCOCC1 [Example 631] | 6.93 | < 5.00 | – | – | –
15 | O=C(CCCOc1ccc(S(=O)(=O)C2(C(=O)NO)CCOCC2)cc1)Nc1cccc(I)c1 [Example 570] | 9.70 | 5.51 | – | – | –
16 | COCCN1CCC(C(=O)NO)(S(=O)(=O)c2ccc(OCCCc3nc(-c4ccc(OC(F)(F)F)cc4)no3)cc2)CC1 [Example 190] | – | – | 9.30 | < 5.00 | –
17 | O=C(NO)C1(S(=O)(=O)c2ccc(OCCCc3cccc(-c4ccoc4)c3)cc2)CCOCC1 [Example 637] | 8.74 | < 5.00 | – | – | –
18 | COCCN1CCC(C(=O)NO)(S(=O)(=O)c2ccc(OCCCc3nnc(-c4ccccc4C(F)(F)F)o3)cc2)CC1 [Example 178] | – | – | 8.11 | < 5.00 | –
19 | O=C(NO)C1(S(=O)(=O)c2ccc(OCCCn3nnc(-c4ccc(OC(F)(F)F)cc4)n3)cc2)CCN(C2CC2)CC1 [Example 49] | – | – | – | – | pIC50 (Human recombinant MMP-13; [1]): 9.52; pKi (Human recombinant MMP-1; [2]): < 5.00
20 | O=C(NO)C1(S(=O)(=O)c2ccc(OCCc3cccc(-c4ccccn4)c3)cc2)CCOCC1 [Example 40] | – | – | – | – | pIC50 (Human recombinant MMP-13; [1]): 9.30; pKi (Human recombinant MMP-1; [2]): < 5.00
21 | O=C(NO)C1(S(=O)(=O)c2ccc(OCCCc3cccc(-c4ccc(F)cc4F)c3)cc2)CCOCC1 [Example 630] | 9.40 | < 5.00 | – | – | –
22 | O=C(NO)C1(S(=O)(=O)c2ccc(OCCCc3cncc(-c4ccccc4)c3)cc2)CCOCC1 [Example 524] | 9.70 | – | – | – | –
23 | C=Cc1ccc(-c2cccc(CCCOc3ccc(S(=O)(=O)C4(C(=O)NO)CCOCC4)cc3)c2)cc1 [Example 635] | 7.70 | < 5.00 | – | – | –
24 | COCCN1CCC(C(=O)NO)(S(=O)(=O)c2ccc(OCCCc3nc(-c4ccc(CC(C)C)cc4)no3)cc2)CC1 [Example 175] | – | – | 8.85 | < 5.00 | –
25 | COCCN1CCC(C(=O)NO)(S(=O)(=O)c2ccc(OCCCc3nc(-c4ccc(OC(F)(F)F)cc4)no3)cc2)CC1 [Example 42] | – | – | – | – | pIC50 (Human recombinant MMP-13; [1]): 9.52; pKi (Human recombinant MMP-1; [2]): < 5.00
26 | N#Cc1ccc(-c2cccc(CCCOc3ccc(S(=O)(=O)C4(C(=O)NO)CCOCC4)cc3)c2)cc1 [Example 624] | 9.52 | < 5.00 | – | – | –
27 | COCCN1CCC(C(=O)NO)(S(=O)(=O)c2ccc(OCCCn3nnc(-c4ccc(OC(F)(F)F)cc4)n3)cc2)CC1 [Example 48] | – | – | – | – | pIC50 (Human recombinant MMP-13; [1]): 9.70
28 | O=C(NO)C1(S(=O)(=O)c2ccc(OCCCc3cccc(-c4cccs4)c3)cc2)CCOCC1 [Example 595] | 9.00 | – | – | – | –

The next lines start with results.

Row | pIC50 (Human recombinant MMP-13; value outside parentheses) | pKi (Human recombinant MMP-1; value in parentheses) | pIC50 (Human recombinant MMP-13; value outside parenthesis) | pKi (Human recombinant MMP-1; value in parenthesis) | SMILES | further results
29 | – | – | 8.51 | 5.06 | O=C(NO)C1(S(=O)(=O)c2ccc(OCCCc3cccc(-c4ccccn4)c3)cc2)CCOCC1 [Example 148] | –
30 | 6.40 | < 5.00 | – | – | O=C(NO)C1(S(=O)(=O)c2ccc(OCCCc3cccc(-c4cccc5ccccc45)c3)cc2)CCOCC1 [Example 638] | –
31 | – | – | 8.77 | 6.02 | Cc1cc(OC(F)(F)F)ccc1NC(=O)CCCOc1ccc(S(=O)(=O)C2(C(=O)NO)CCOCC2)cc1 [Example 229] | –
32 | – | – | 9.40 | < 5.00 | O=C(NO)C1(S(=O)(=O)c2ccc(OCCCc3cccc(-c4ccc(F)cc4)c3)cc2)CCN(C2CC2)CC1 [Example 139] | –
33 | 8.96 | < 5.00 | – | – | O=C(COc1ccc(S(=O)(=O)C2(C(=O)NO)CCOCC2)cc1)c1cccc(-c2ccccc2)c1 [Example 563] | –
34 | – | – | 10.00 | < 5.00 | COc1ccc(/C(C#N)=C/CCCOc2ccc(S(=O)(=O)C3(C(=O)NO)CCN(C4CC4)CC3)cc2)cc1 [Example 233] | –
35 | 7.47 | < 5.00 | – | – | O=C(NO)C1(S(=O)(=O)c2ccc(OCCCc3cccc(-c4ccc(C(F)(F)F)cc4)c3)cc2)CCOCC1 [Example 625] | –
36 | 6.93 | < 5.00 | – | – | O=C(NO)C1(S(=O)(=O)c2ccc(OCCCc3cccc(-c4cc5ccccc5s4)c3)cc2)CCOCC1 [Example 633] | –
37 | – | – | 6.30 | < 5.00 | CC(C)c1ccc(-c2cccc(CCCOc3ccc(S(=O)(=O)C4(C(=O)NO)CCOCC4)cc3)c2)cc1 [Example 160] | –
38 | – | – | 8.60 | < 5.00 | O=C(NO)C1(S(=O)(=O)c2ccc(OCCCc3cccc(-c4ccccc4F)c3)cc2)CCOCC1 [Example 163] | –
